Results as given in PubChem BioAssay AID1845205 (Molecular Pharmacology Branch, DTP, NCI, 2023).
pIC50: −log10 of the molar value.

System: MPNST multicellular tumor spheroids, viability % test/control
Assay: Anticancer human tumor MPNST cell line growth inhibition;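 also: spheroids exposed to agents for seven days after three days of growth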;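 as to viability, T/C: luminescence signal used as surrogate for viable cell amount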
Conditions: for pIC50: curve of first compound; for viability, T/C: stronger effect = lower value
From the text: Multicellular complex tumor spheroid response to DNA repair inhibitors in combination with DNA-damaging drugs
This study explores the anticancer activities of DNA-damaging drugs and inhibitors of DNA damage repair, both as single agents and in combinations. Complex tumor spheroids comprised of malignant cells, endothelial cells and mesenchymal stem cells served as an in vitro model for human solid tumors. This model system incorporates physiologically relevant features and patient-derived or established malignant cell lines with clinically relevant genetic alterations from many tumor types. Twenty-six patient-derived or established malignant cell lines were evaluated representing sarcoma, melanoma, small cell lung cancer (SCLC), non-small cell lung cancer (NSCLC), as well as bladder, ovarian and pancreatic cancers. The concentration ranges selected for each drug and investigational agent were based upon clinically achievable concentrations if the clinical Cmax of the agent was known.
Compounds. The drugs and compounds olaparib (NSC753686), talazoparib (NSC767125), berzosertib (NSC777718), elimusertib (NSC800525), nedisertib (NSC802822), VX-984 (NSC792969), AZD-1390 (NSC803789), temozolomide (NSC362856), topotecan (NSC609699), trabectedin (NSC813783), staurosporine (NSC755774), and gemcitabine (NSC613327) were obtained from the National Cancer Institute (NCI) Developmental Therapeutics Program Chemical Repository. The FDA-approved anticancer drug set is available from the Developmental Therapeutics Program at https://dtp.cancer.gov/organization/dscb/obtaining/available_plates.htm. […] The stock solutions were prepared in dimethyl sulfoxide (DMSO, Sigma-Aldrich, St. Louis, MO, cat. D2650) at 400-fold the tested concentration and stored at -70 degrees C. Prior to their use, the stock solutions were diluted in fresh medium and the final DMSO concentration in the assay was 0.25% (v/v). All drugs and investigational agents were tested over a range starting from a high concentration at or near the clinical Cmax and decreasing in half-log increments. If the clinical Cmax for an agent had not been determined, the highest concentration tested was 10 microM.
Cell Lines. The patient-derived cancer cell (PDC) lines: 156681-154-R-J1-PDC, 283228-195-R-J1-PDC, 287954-098-R-J1-PDC, 292921-168-R-J2-PDC, 349418-098-R-PDC, 425362-245-T-J1-PDC, 556581-035-R-J1-PDC, and BL0293-F563-PDC were received from the NCI Patient-Derived Models Repository (PDMR, https://pdmr.cancer.gov). The established cell lines HS-SY-2 (RRID:CVCL_8719), MPNST, and SYO-1 (RRID:CVCL_7146) were obtained from the Sloan Kettering Institute. The alveolar soft parts sarcoma cell line ASPS-1 (RRID:CVCL_S738) was established at the NCI and grown from internal seed stocks. The following established cell lines were purchased from the American Type Culture Collection (ATCC, Manassas, VA): G-401 (ATCC, cat. CRL-1441, RRID:CVCL_0270), SW982 (ATCC, cat. HTB-93, RRID:CVCL_1734), VA-ES-BJ (ATCC, cat. CRL-2138, RRID:CVCL_1785), NCI-H719 (ATCC, cat. CRL-5837, RRID:CVCL_1582), NCI-H196 (ATCC, cat. CRL-5823, RRID:CVCL_1509), NCI-H841 (ATCC, cat. CRL-5845, RRID:CVCL_1595), NCI-H1618 (ATCC, cat. CRL-5879, RRID:CVCL_1480), NCI-H1876 (ATCC, cat. CRL-5902, RRID:CVCL_1503), DMS 114 (ATCC, cat. CRL-2066; RRID:CVCL_1174), NCI-H211 (ATCC, cat. CRL-5824; RRID:CVCL_1529), and SW 1271 (ATCC, cat. CRL-2177, RRID:CVCL_1716). The small cell lung cancer cell line COR-L88 was purchased from Sigma-Aldrich (cat. 92031917-1VL, RRID:CVCL_1141). The non-small cell lung cancer cell lines NCI-H226 (RRID:CVCL_1544) and NCI-H322M (RRID:CVCL_1557) were established at the NCI and grown from internal seed stocks. Pooled donor human umbilical vein endothelial cells (HUVEC, Lonza, cat. CC-2519) and human mesenchymal stem cells (hMSC, Lonza, cat. PT-2501) were purchased from Lonza (Walkersville, MD).
Cell Culture. All cells were maintained in an incubator at 37 degrees C and 5% CO2 with 95% humidity. […]

[1] = second compound 0.003 µM, first compound 0.00949 µM
[2] = second compound 0.003 µM, first compound 0.03 µM
[3] = second compound 0.003 µM, first compound 0.0949 µM
[4] = second compound 0.003 µM, first compound 0.3 µM
[5] = second compound 0.003 µM, first compound 0.949 µM
[6] = second compound 0.003 µM, first compound 3 µM
[7] = second compound 0.00949 µM, first compound 0.00949 µM
[8] = second compound 0.00949 µM, first compound 0.03 µM
[9] = second compound 0.00949 µM, first compound 0.0949 µM
[10] = second compound 0.00949 µM, first compound 0.3 µM
[11] = second compound 0.00949 µM, first compound 0.949 µM
[12] = second compound 0.00949 µM, first compound 3 µM
[13] = second compound 0.03 µM, first compound 0.00949 µM
[14] = second compound 0.03 µM, first compound 0.03 µM
[15] = second compound 0.03 µM, first compound 0.0949 µM
[16] = second compound 0.03 µM, first compound 0.3 µM
[17] = second compound 0.03 µM, first compound 0.949 µM
[18] = second compound 0.03 µM, first compound 3 µM
[19] = second compound 0.0949 µM, first compound 0.00949 µM
[20] = second compound 0.0949 µM, first compound 0.03 µM
[21] = second compound 0.0949 µM, first compound 0.0949 µM
[22] = second compound 0.0949 µM, first compound 0.3 µM
[23] = second compound 0.0949 µM, first compound 0.949 µM
[24] = second compound 0.0949 µM, first compound 3 µM
[25] = second compound 0.3 µM, first compound 0.00949 µM
[26] = second compound 0.3 µM, first compound 0.03 µM
[27] = second compound 0.3 µM, first compound 0.0949 µM
[28] = second compound 0.3 µM, first compound 0.3 µM
[29] = second compound 0.3 µM, first compound 0.949 µM
[30] = second compound 0.3 µM, first compound 3 µM

Row | SMILES | pIC50 (second compound 0.003 µM) | pIC50 (second compound 0.00949 µM) | pIC50 (second compound 0.03 µM) | pIC50 (second compound 0.0949 µM) | pIC50 (second compound 0.3 µM) | viability, T/C [3] | viability, T/C [4] | viability, T/C [5] | viability, T/C [6] | viability, T/C [9] | viability, T/C [10] | viability, T/C [11] | viability, T/C [12] | viability, T/C [15] | viability, T/C [16] | viability, T/C [17] | viability, T/C [18] | viability, T/C [21] | viability, T/C [22] | viability, T/C [23] | other results
1 | CNCc1ccc(-c2cc(-c3nc(-c4ccc(S(=O)(=O)C(C)C)cc4)cnc3N)on2)cc1 + CC[C@@]1(O)C(=O)OCc2c1cc1n(c2=O)Cc2cc3c(CN(C)C)c(O)ccc3nc2-1 | < 5.52 | < 5.52 | < 5.52 | < 5.52 | > 8.02 | 71.8% | 61.4% | 64.3% | 61.7% | 59.7% | 58% | 60.3% | 66.6% | 53.8% | 57.1% | 63.7% | 64.9% | 56.8% | 64.7% | 58.1% | viability, T/C [1]: 104%; viability, T/C [2]: 99.3%; viability, T/C [7]: 75.6%; viability, T/C [8]: 74.3%; viability, T/C [13]: 61.9%; viability, T/C [14]: 55.1%; viability, T/C [19]: 57.7%; viability, T/C [20]: 54.8%; viability, T/C [24]: 70.7%; viability, T/C [25]: 46.1%; viability, T/C [26]: 45%; viability, T/C [27]: 48.8%; viability, T/C [28]: 50%; viability, T/C [29]: 55.5%; viability, T/C [30]: 52.7%
2 | Cn1ncnc1[C@H]1c2n[nH]c(=O)c3cc(F)cc(c23)N[C@@H]1c1ccc(F)cc1 + CC[C@@]1(O)C(=O)OCc2c1cc1n(c2=O)Cc2cc3c(CN(C)C)c(O)ccc3nc2-1 | < 5.52 | < 5.52 | < 5.52 | < 5.52 | > 8.02 | 72.3% | 68.7% | 62.2% | 60.1% | 60.5% | 63.9% | 59.4% | 59.9% | 61.1% | 59.7% | 64% | 61.1% | 58.8% | 61.6% | 59.1% | viability, T/C [1]: 90.6%; viability, T/C [2]: 77.2%; viability, T/C [7]: 65%; viability, T/C [8]: 65.6%; viability, T/C [13]: 56.7%; viability, T/C [14]: 59%; viability, T/C [19]: 59.7%; viability, T/C [20]: 55.8%; viability, T/C [24]: 55.6%; viability, T/C [25]: 49.5%; viability, T/C [26]: 48.5%; viability, T/C [27]: 49.2%; viability, T/C [28]: 52.7%; viability, T/C [29]: 53%; viability, T/C [30]: 46.3%
3 | O=C(c1cc(Cc2n[nH]c(=O)c3ccccc23)ccc1F)N1CCN(C(=O)C2CC2)CC1 + CC[C@@]1(O)C(=O)OCc2c1cc1n(c2=O)Cc2cc3c(CN(C)C)c(O)ccc3nc2-1 | < 4.52 | < 4.52 | < 4.52 | < 4.52 | > 7.02 | 87.4% | 78% | 72.9% | 68% | 81.5% | 73.7% | 62.2% | 59.3% | 53.5% | 59.2% | 57% | 58.4% | 57.5% | 53.1% | 58.5% | viability, T/C (second compound 0.003 µM, first compound 9.49 µM): 69.5%; viability, T/C (second compound 0.003 µM, first compound 30 µM): 58.2%; viability, T/C (second compound 0.00949 µM, first compound 9.49 µM): 59.9%; viability, T/C (second compound 0.00949 µM, first compound 30 µM): 59%; viability, T/C (second compound 0.03 µM, first compound 9.49 µM): 60.9%; viability, T/C (second compound 0.03 µM, first compound 30 µM): 55.3%; viability, T/C [24]: 54.9%; viability, T/C (second compound 0.0949 µM, first compound 9.49 µM): 54.6%; viability, T/C (second compound 0.0949 µM, first compound 30 µM): 55%; viability, T/C [27]: 49.3%; viability, T/C [28]: 50.7%; viability, T/C [29]: 50.5%; viability, T/C [30]: 46.3%; viability, T/C (second compound 0.3 µM, first compound 9.49 µM): 47.8%; viability, T/C (second compound 0.3 µM, first compound 30 µM): 38.6%
